Source: patent publication US20250339402A1, “EFFECTIVE MEANS TO MODULATE NMDA RECEPTOR-MEDIATED TOXICITY” (FUNDAMENTAL PHARMA GMBH, priority 2022, published 2025)
Structures can show the parent of a compound that is named as a salt.

Tested on: Primary mouse hippocampal neurons
Assay: Excitotoxic (glutamate/NMDA-induced) cell death in primary neuronal cultures, protection index
Format: cell-based
Details: for IC50: Mus musculus, Hippocampal neuron, excitotoxic cell death in primary neuronal cultures
Protocol: Primary mouse hippocampal neurons were prepared as previously described (Bading & Greenberg, Science, 1991; 253: 912-914; Zhang et al, Neuron, 2007, 53: 549-562) and maintained in Neurobasal-A medium supplemented with 2% B27, 5 mM L-Glutamax, and 0.5% Penicillin/Streptomycin until challenged with NMDA on days in vitro (DIV) 10. Glutamate-induced cell death was analyzed in a real-time manner by monitoring nuclear localized mCherry with IncuCyte® S3 Live-Cell Analysis System (Sartorius AG, Germany). Primary neurons plated in 24 well plates were infected with rAAV-hSyn-mCherry on DIV3 and challenged with 1 μM or 20 μM glutamate on DIV10. All compounds were added to the culture 30 min prior to glutamate/NMDA insult. Images were acquired following the glutamate application for 24 h with a 2 h interval, where 9-16 images were obtained via a 20×objective for each condition at each time point. Cell deaths were quantified by analyzing the existence of nuclear localized mCheery via the Basic Analyzer with Incucyte® 2021 software, size and average intensity were used as exclusion criteria.
In order to evaluate the protective effects of various compounds, a quantification method was developed to determine each compound's protection index. The protection index (from 0.0 to 10.0) was calculated by the area above the curve (AAC) during a 24 h excitotoxic stimuli, where the cell survival was normalized to the 0 h (FIG. 2), following the equation: […]
Where AAC represents for each compound, AACbasal represents for the basal condition without excitotoxic insult, AACVeh represents for the vehicle control with excitotoxic insult. Based on the equation, vehicle (DMSO) has a protection index at 0.0 and compound P401 of WO 2020/079244 has a protection index at 6.0 (at 10 μM).
The inventors also performed experiments with Group A compounds at lower concentration in a 3-fold dilution matter ([…]: 3.0, 1.0, 0.3, 0.1, 0.03) and were able to achieve a similar protection effect as 10 μM compound P401, but at a lower concentration.

[1] = first subset, protection index from area above curve over 24 h glutamate/NMDA insult, compounds added 30 min before, 10 μM, Group A also at lower concentrations
[2] = second subset, protection index from area above curve over 24 h glutamate/NMDA insult, compounds added 30 min before, 10 μM, Group A also at lower concentrations
[3] = third subset, A++++ or above correlates with IC50, A++ and A+++ as defined in the source

CCN(CCN)Cc1c(F)ccc(Cl)c1F [Compound 92]
Biological Activity Rating [1]: A (With a protection index over 7.0, provides a significantly better protection over compound P401 (10 μM) at 10 μM.)

CCN(CCN)Cc1cccc(Cl)c1F [Compound 91]
Biological Activity Rating [1]: A (With a protection index over 7.0, provides a significantly better protection over compound P401 (10 μM) at 10 μM.)

NCCN(Cc1cccc(Cl)c1F)CC1CC1 [Compound 153]
Biological Activity Rating [1]: C (With a protection index between 3.0 to 5.0, provides a significantly lower protection compared to compound P401 (10 μM) at 10 μM.)

C=CCC(c1cccc(Cl)c1F)N(CCN)C1CC1 (centres unmarked) [Compound 271A, N′-[1-(3-chloro-2-fluoro-phenyl)but-3-enyl]-N′-cyclopropyl-ethane-1,2-diamine TFA salt]
IC50 (third subset): 0.007 µM

CCCN(CCN)C(CC)c1cccc(Cl)c1F (centres unmarked) [Compound 262, N1-(1-(3-chloro-2-fluorophenyl)propyl)-N1-propylethane-1,2-diamine hydrochloride]
IC50 (third subset): 0.01 µM

NCCN(C1CC1)C(c1cccc(Cl)c1F)C1CCCC1 (centres unmarked) [Compound 268]
IC50 (third subset): 0.28 µM

CC(c1cccc(Cl)c1F)N(CCN)C12CC(C1)C2 (centres unmarked) [Compound 182, N1-(bicyclo[1.1.1]pentan-1-yl)-N1-(1-(3-chloro-2-fluorophenyl)ethyl)ethane-1,2-diamine hydrochloride]
Biological Activity Rating [2]: A+ (With a protection index between 5.0 to 7.0, provides a comparable protection to compound P401 (10 μM) at 3.0 μM.)

CCC(c1cccc(Cl)c1F)N(CCN)C1CC1 (centres unmarked) [Compound 224, N1-(1-(3-chloro-2-fluorophenyl)propyl)-N1-cyclopropylethane-1,2-diamine hydrochloride]
IC50 (third subset): 0.026 µM

NCCN(Cc1cccc(Cl)c1F)CC(F)F [Compound 118, N1-(3-chloro-2-fluorobenzyl)-N1-(2,2-difluoroethyl)ethane-1,2-diamine]
Biological Activity Rating [1]: C (With a protection index between 3.0 to 5.0, provides a significantly lower protection compared to compound P401 (10 μM) at 10 μM.)

C=CCN(CCN)Cc1cccc(Cl)c1F [Compound 160]
Biological Activity Rating [1]: A (With a protection index over 7.0, provides a significantly better protection over compound P401 (10 μM) at 10 μM.)

N#Cc1cccc(C(CC(F)(F)F)N(CCN)C2CC2)c1F (centres unmarked) [Compound 280, 3-(1-((2-aminoethyl)(cyclopropyl)amino)-3,3,3-trifluoropropyl)-2-fluorobenzonitrile hydrochloride]
IC50 (third subset): 0.036 µM

NCCN(C1CC1)C(c1cccc(Cl)c1F)C(F)(F)C(F)(F)F (centres unmarked) [Compound 270, N1-(1-(3-chloro-2-fluorophenyl)-2,2,3,3,3-pentafluoropropyl)-N1-cyclopropylethane-1,2-diamine TFA salt]
IC50 (third subset): 0.013 µM

NCCN(Cc1cccc(Cl)c1)CC1CCC1 [Compound 135]
Biological Activity Rating [1]: B (With a protection index between 5.0 to 7.0, provides a comparable protection to compound P401 (10 μM) at 10 μM.)

CC(c1scc(Br)c1F)N(CCN)C1CC1 (centres unmarked) [Compound 297A, N′-[1-(4-bromo-3-fluoro-2-thienyl)ethyl]-N′-cyclopropyl-ethane-1,2-diamine TFA salt]
IC50 (third subset): 0.081 µM

CC(c1cccc(Br)c1F)N(CCN)C1CC1 (centres unmarked) [Compound 191, N^1-(1-(3-bromo-2-fluorophenyl)ethyl)-N^1-cyclopropylethane-1,2-diamine hydrochloride]
IC50 (third subset): 0.23 µM

CC(c1cc(Cl)ccc1Cl)N(CCN)C1CC1 (centres unmarked) [Compound 185, N1-(cyclopropyl)-N1-(1-(2,5-dichlorophenyl)ethyl)ethane-1,2-diamine hydrochloride]
Biological Activity Rating [2]: A++ (With a protection index between 5.0 to 7.0, provides a comparable protection to compound P401 (10 μM) at 1.0 μM.)

CC(c1cc(Cl)ccc1F)N(CCN)C1CC1 (centres unmarked) [Compound 243]
IC50 (third subset): 0.3 µM
Biological Activity Rating [3]: A+++

CSCCN(CCN)Cc1cccc(Cl)c1 [Compound 126]
Biological Activity Rating [1]: B (With a protection index between 5.0 to 7.0, provides a comparable protection to compound P401 (10 μM) at 10 μM.)

NCCN(C1CC1)C(c1cccc(Cl)c1F)C(F)(F)F (centres unmarked) [Compound 263, N^1-(1-(3-chloro-2-fluorophenyl)-2,2,2-trifluoroethyl)-N^1-cyclopropylethane-1,2-diamine hydrochloride]
IC50 (third subset): 0.255 µM

CC(c1cccc(F)c1Cl)N(CCN)C1CC1 (centres unmarked) [Compound 246]
IC50 (third subset): 0.5 µM
Biological Activity Rating [3]: A+++

NCCN(Cc1cccc(Cl)c1F)C1CCC1 [Compound 159, N1-(3-chloro-2-fluorobenzyl)-N1-cyclobutylethane-1,2-diamine dihydrochloride]
Biological Activity Rating [1]: A++ (With a protection index between 5.0 to 7.0, provides a comparable protection to compound P401 (10 μM) at 1.0 μM.)

CCN(CCN)Cc1cccc(C#N)c1F [Compound 175, 3-(((2-aminoethyl)(ethyl)amino)methyl)-2-fluorobenzonitrile TFA salt]
Biological Activity Rating [1]: A+ (With a protection index between 5.0 to 7.0, provides a comparable protection to compound P401 (10 μM) at 3.0 μM.)

CC(c1cccc(Cl)c1F)N(CCN)C1CCC1 (centres unmarked) [Compound 180, N1-(cyclobutyl)-N1-(1-(3-chloro-2-fluorophen, l)ethyl)ethane-1,2-diamine hydrochloride]
Biological Activity Rating [2]: A++ (With a protection index between 5.0 to 7.0, provides a comparable protection to compound P401 (10 μM) at 1.0 μM.)

NCCN(C1CC1)C(c1cccc(Cl)c1F)C1CC1 (centres unmarked) [Compound 190]
IC50 (third subset): 0.11 µM

CCN(CCN)C(C)c1cccc(Cl)c1 (centres unmarked) [Compound 109]
Biological Activity Rating [2]: A (With a protection index over 7.0, provides a significantly better protection over compound P401 (10 μM) at 10 μM.)

NCCN(C1CC1)C(c1cccc(Br)c1F)C(F)(F)F (centres unmarked) [Compound 261A, N′-[1-(3-bromo-2-fluoro-phenyl)-2,2,2-trifluoro-ethyl]-N′-cyclopropyl-ethane-1,2-diamine hydrochloride]
IC50 (third subset): 0.033 µM

CC(c1c(F)ccc(Cl)c1F)N(CCN)C1CC1.Cl (centres unmarked) [Compound 187]
IC50 (third subset): 2 µM
Biological Activity Rating [3]: A++

CCN(CCN)Cc1cccc(Br)c1F [Compound 175A]
Biological Activity Rating [1]: A (With a protection index over 7.0, provides a significantly better protection over compound P401 (10 μM) at 10 μM.)

CC(C)C(c1cccc(Br)c1F)N(CCN)C1CC1 (centres unmarked) [Compound 294, N′-[1-(3-bromo-2-fluoro-phenyl)-2-methyl-propyl]-N′-cyclopropyl-ethane-1,2-diamine TFA salt]
IC50 (third subset): 0.01 µM

CC(c1cccc(Br)c1F)N(CCN)C1CCC1 (centres unmarked) [Compound 227B]
IC50 (third subset): 0.3 µM
Biological Activity Rating [3]: A+++

CCC(c1c(F)ccc(C#N)c1F)N(CCN)C1CC1 (centres unmarked) [Compound 259]
IC50 (third subset): 0.032 µM
